Results on 1 substance are retold here after patent US20030073737A1, “Tolerance induction” (priority 2001, published 2003).

The test system of assay [1] is mixed lymphocyte reaction. To be noted: as described in WO 99/50388; cited from earlier work.
The next assay deals with donor heart graft. The experiment in a line: Rat heterotopic heart transplantation, graft survival. To be noted: Lewis/BN rats; i.v. or s.c., daily dose up to 1 mg/kg for 1-12 weeks, e.g. 4 weeks; daily palpation of beating donor heart. The assay is classed as in vivo. An excerpt: 1. Rat Heterotopic Heart Transplantation
The strain combination used: Male Lewis (RT^1 haplotype) and BN (RT^1 haplotype). The animals are anaesthetised using inhalational isofluorane. […] The aorta is ligated and divided distal to the first branch and the brachiocephalic trunk is divided at the first bifurcation. The left pulmonary artery is ligated and divided and the right side divided but left open. All other vessels are dissected free, ligated and divided and the donor heart is removed into iced saline.
The recipient is prepared by dissection and cross-clamping of the infra-renal abdominal aorta and vena cava. The graft is implanted with end-to-side anastomoses, using 10/0 monofilament suture, between the donor brachiocephalic trunk and the recipient aorta and the donor right pulmonary artery to the recipient vena cava. The clamps are removed, the graft tethered retroabdominally, the abdominal contents washed with warm saline and the animal is closed and allowed to recover under a heating lamp. Graft survival is monitored by daily palpation of the beating donor heart through the abdominal wall. Rejection is considered to be complete when heart beat stops.

For Tautomycetin, the “inhibition of the mixed lymphocyte reaction” value in assay [1] is given as “inhibition of the mixed lymphocyte reaction”. Also, the graft survival entry in the assay on donor heart graft is given as “Increases of graft survival are obtained beyond treatment time”.
